According to US20090104214A1 (priority 2004, published 2009):

Tests used:
[1] = target: PA63-LF binding (Bacillus anthracis, UniProt P13423)
[2] = target: anthrax lethal toxin (PA83 and LF) (Bacillus anthracis, UniProt P13423); details: rat, in vivo, iv
[3] = target: purified recombinant PA83 (Bacillus anthracis, UniProt P13423)
[4] = target: T1, PA63 (Bacillus anthracis, UniProt P13423)
[5] = target: LF (Bacillus anthracis, UniProt P15917)
[6] = tested on: J774A.1 cells incubated with PA83 and LF; type: cell-based, mouse
[7] = target: T1, PA63; remark: listed apart in the source

anthrax lethal toxin (PA83 and LF), sequence (P13423 197-764 limits assumed): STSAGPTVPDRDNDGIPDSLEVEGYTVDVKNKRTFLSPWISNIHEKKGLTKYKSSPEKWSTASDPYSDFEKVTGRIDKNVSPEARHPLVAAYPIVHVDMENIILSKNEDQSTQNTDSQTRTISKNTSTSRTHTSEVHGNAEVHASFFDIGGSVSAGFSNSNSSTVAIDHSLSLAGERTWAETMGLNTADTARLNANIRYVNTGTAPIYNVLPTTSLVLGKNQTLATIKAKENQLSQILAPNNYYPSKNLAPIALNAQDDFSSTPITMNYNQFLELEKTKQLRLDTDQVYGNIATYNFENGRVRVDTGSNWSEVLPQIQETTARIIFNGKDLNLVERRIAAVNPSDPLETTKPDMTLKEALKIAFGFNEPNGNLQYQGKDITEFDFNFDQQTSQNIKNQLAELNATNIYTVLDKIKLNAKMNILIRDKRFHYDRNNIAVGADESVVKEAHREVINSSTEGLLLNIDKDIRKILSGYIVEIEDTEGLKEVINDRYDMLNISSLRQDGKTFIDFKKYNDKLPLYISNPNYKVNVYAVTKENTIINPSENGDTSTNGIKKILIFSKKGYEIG
T1 sequence (P13423 197-764 limits assumed): as above
PA63-LF binding, sequence (P13423 197-764 limits assumed): as above
LF, sequence (P15917 34-809 limits assumed): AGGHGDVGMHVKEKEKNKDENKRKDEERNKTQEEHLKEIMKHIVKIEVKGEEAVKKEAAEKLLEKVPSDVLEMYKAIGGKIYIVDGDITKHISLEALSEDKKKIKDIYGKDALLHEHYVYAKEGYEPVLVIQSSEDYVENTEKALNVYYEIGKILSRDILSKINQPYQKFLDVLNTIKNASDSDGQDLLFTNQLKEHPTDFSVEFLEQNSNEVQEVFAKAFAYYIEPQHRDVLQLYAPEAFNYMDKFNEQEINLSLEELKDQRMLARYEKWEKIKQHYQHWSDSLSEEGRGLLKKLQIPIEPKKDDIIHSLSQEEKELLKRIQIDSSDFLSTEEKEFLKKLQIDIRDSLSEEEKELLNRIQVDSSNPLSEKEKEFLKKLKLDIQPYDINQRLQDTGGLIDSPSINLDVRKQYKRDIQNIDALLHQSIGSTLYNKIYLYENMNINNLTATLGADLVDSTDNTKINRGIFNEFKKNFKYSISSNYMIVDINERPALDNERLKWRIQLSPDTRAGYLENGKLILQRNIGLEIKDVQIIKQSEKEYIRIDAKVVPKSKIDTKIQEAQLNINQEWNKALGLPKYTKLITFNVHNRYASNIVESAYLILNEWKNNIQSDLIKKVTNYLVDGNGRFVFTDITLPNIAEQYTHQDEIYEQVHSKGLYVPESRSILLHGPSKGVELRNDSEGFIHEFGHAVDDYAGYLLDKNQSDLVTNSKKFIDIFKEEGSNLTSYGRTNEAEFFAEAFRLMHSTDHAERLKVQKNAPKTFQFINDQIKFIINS
purified recombinant PA83, sequence (P13423 30-764 limits assumed): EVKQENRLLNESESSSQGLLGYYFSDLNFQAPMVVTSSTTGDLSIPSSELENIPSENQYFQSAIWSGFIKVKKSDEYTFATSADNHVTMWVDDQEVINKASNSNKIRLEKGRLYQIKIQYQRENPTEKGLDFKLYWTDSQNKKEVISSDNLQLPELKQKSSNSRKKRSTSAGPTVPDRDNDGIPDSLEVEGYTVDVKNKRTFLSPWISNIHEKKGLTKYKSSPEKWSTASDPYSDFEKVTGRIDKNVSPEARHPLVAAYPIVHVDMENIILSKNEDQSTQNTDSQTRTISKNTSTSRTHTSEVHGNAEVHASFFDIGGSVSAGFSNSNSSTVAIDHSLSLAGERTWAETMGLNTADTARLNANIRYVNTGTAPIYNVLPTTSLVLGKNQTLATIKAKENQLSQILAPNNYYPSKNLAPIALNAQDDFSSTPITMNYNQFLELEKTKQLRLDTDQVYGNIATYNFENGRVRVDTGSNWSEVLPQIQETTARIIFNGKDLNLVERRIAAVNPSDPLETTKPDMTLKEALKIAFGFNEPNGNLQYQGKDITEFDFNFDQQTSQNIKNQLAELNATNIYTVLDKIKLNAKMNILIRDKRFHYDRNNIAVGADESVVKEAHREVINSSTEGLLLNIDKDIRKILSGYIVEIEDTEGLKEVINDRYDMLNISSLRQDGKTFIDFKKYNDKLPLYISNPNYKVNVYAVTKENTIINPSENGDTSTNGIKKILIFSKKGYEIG

Substance | effective in blocking the interaction of PA with LF (summary statement) [1] | inhibition of PA63-LF binding in ELISA, substitution of position 2 of MAP 3 [1] | also measured
NDMTYWWLDPPL | Particularly effective | good efficiency | 
NNMTYWWLDPPL | Particularly effective | good efficiency | 
YWWLTPP | Particularly effective |  | inhibition of PA63-LF binding in ELISA, shortening of MAP2 and re-elongation of YWWLTP [1]: superior inhibitory efficiency
NQMTYWWLDPPL | Particularly effective | good efficiency | 
YWWLTPPP [MAP YWWLTPPP] | Particularly effective |  | neutralization of lethal toxin toxicity in rats [2]: completely neutralized toxicity; inhibition of PA63-LF binding in ELISA, shortening of MAP2 and re-elongation of YWWLTP [1]: even better efficiency
TLPYWWLTPSNP [MAP2] | Particularly effective |  | binding to purified recombinant PA83 in ELISA [3]: did not bind; binding to PA63 in ELISA [4]: specifically bound; binding to LF in ELISA [5]: did not bind
YWWLTP |  |  | inhibition of PA63-LF binding in ELISA, shortening of MAP2 and re-elongation of YWWLTP [1]: minimal sequence able to inhibit PA-LF binding
YWWLTPPA | Particularly effective |  | inhibition of PA63-LF binding in ELISA, shortening of MAP2 and re-elongation of YWWLTP [1]: even better efficiency
NPMTYWWLDPPL | Particularly effective | good efficiency | 
NAMTYWWLDPPL [MAP3V/A] | Particularly effective |  | neutralization of lethal toxin toxicity in rats [2]: completely neutralized toxicity; IC50 for inhibition of PA83/LF-induced cell mortality, compared with MAP3 [6]: one log lower than that of MAP3; inhibition of PA63-LF binding in ELISA, alanine scanning of MAP3 [1]: better efficiency
YWWLKPP | Particularly effective |  | 
NVMTYWWLDPPL [p3] |  |  | equilibrium association constant KA of peptide-PA63 binding [7]: 3.4e+07 M⁻¹; koff [7]: 0.0004 s⁻¹; kon [7]: 14000 M⁻¹ s⁻¹
NSMTYWWLDPPL | Particularly effective | good efficiency | 
NEMTYWWLDPPL | Particularly effective | good efficiency | 
NGMTYWWLDPPL | Particularly effective | good efficiency | 
TLAYWWLTPSNP | Particularly effective |  | 
YWWLQPP | Particularly effective |  | 
YWWLTPPP [8mer peptide YWWLTPPP] |  |  | KA fold higher than that of lead 12mer p2 [7]: about 10 fold; equilibrium association constant KA of peptide-PA63 binding [7]: 6.8e+07 M⁻¹; koff [7]: 0.0013 s⁻¹; kon [7]: 88000 M⁻¹ s⁻¹
YWWLEPP | Particularly effective |  | 
TLPYWWLTPSNP [p2] |  |  | equilibrium association constant KA of peptide-PA63 binding [7]: 7.2e+06 M⁻¹; koff [7]: 0.0007 s⁻¹; kon [7]: 5000 M⁻¹ s⁻¹
NVMTYWWLDPPA | Particularly effective |  | inhibition of PA63-LF binding in ELISA, alanine scanning of MAP3 [1]: better efficiency
YWWLTPPQ | Particularly effective |  | inhibition of PA63-LF binding in ELISA, shortening of MAP2 and re-elongation of YWWLTP [1]: even better efficiency
YWWLDPP | Particularly effective |  | 
YWWLHPP | Particularly effective |  | 
NVMTYWWLAPPL | Particularly effective |  | inhibition of PA63-LF binding in ELISA, alanine scanning of MAP3 [1]: better efficiency
NVMTYWWLDPPL [MAP3] | Particularly effective |  | neutralization of lethal toxin toxicity in rats [2]: completely neutralized toxicity; binding to purified recombinant PA83 in ELISA [3]: did not bind; IC50 of inhibition of PA63-LF binding in ELISA, compared with MAP2 [1]: about one log lower than that of MAP2; binding to PA63 in ELISA [4]: specifically bound; binding to LF in ELISA [5]: did not bind
NTMTYWWLDPPL | Particularly effective | good efficiency | 
NYMTYWWLDPPL | Particularly effective | good efficiency | 
AVMTYWWLDPPL | Particularly effective |  | inhibition of PA63-LF binding in ELISA, alanine scanning of MAP3 [1]: better efficiency
